Measured values: PubChem BioAssay (NCI)
Values joined by “and” are separate entries in the source; they are usually repeats but may differ in a detail not shown here. Identical values can stand only once.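 Values below derive from 48-hour exposures of cells grown in 96-well plates, with endpoints linearly interpolated between the two concentrations bracketing the appropriate inhibition level. The concentration for 50% growth inhibition is given as GI50. TGI is the concentration that stops growth completely.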

Legend:
Test in all cases: inhibition of tumour cell growth, NCI panel, 48 h
NCI-H460 lung = test system: NCI-H460 lung
K-562 leukemia = test system: K-562 leukemia
SNB-19 CNS = test system: SNB-19 CNS
SW-620 colon = test system: SW-620 colon
SK-MEL-28 melanoma = test system: SK-MEL-28 melanoma
A498 renal = test system: A498 renal
HS 578T breast = test system: HS 578T breast
MOLT-4 leukemia = test system: MOLT-4 leukemia
SK-MEL-2 melanoma = test system: SK-MEL-2 melanoma
CCRF-CEM leukemia = test system: CCRF-CEM leukemia
LOX IMVI melanoma = test system: LOX IMVI melanoma
NCI/ADR-RES ovarian = test system: NCI/ADR-RES ovarian
BT-549 breast = test system: BT-549 breast
HCC-2998 colon = test system: HCC-2998 colon
SK-OV-3 ovarian = test system: SK-OV-3 ovarian
HOP-92 NSCLC = test system: HOP-92 NSCLC
U251 CNS = test system: U251 CNS
ACHN renal = test system: ACHN renal
MDA-N = test system: MDA-N
MALME-3M melanoma = test system: MALME-3M melanoma
SR leukemia = test system: SR leukemia
OVCAR-8 ovarian = test system: OVCAR-8 ovarian
RPMI-8226 leukemia = test system: RPMI-8226 leukemia
NCI-H226 lung = test system: NCI-H226 lung
UACC-62 melanoma = test system: UACC-62 melanoma
SN12C renal = test system: SN12C renal
MDA-MB-231 breast = test system: MDA-MB-231 breast
PC-3 prostate = test system: PC-3 prostate
M14 melanoma = test system: M14 melanoma
786-0 renal = test system: 786-0 renal
MCF7 breast = test system: MCF7 breast
OVCAR-3 ovarian = test system: OVCAR-3 ovarian
CAKI-1 renal = test system: CAKI-1 renal
OVCAR-4 ovarian = test system: OVCAR-4 ovarian
UO-31 renal = test system: UO-31 renal
COLO 205 colon = test system: COLO 205 colon
HOP-62 NSCLC = test system: HOP-62 NSCLC
HCT-15 colon = test system: HCT-15 colon
HL-60(TB) leukemia = test system: HL-60(TB) leukemia
SF-268 CNS = test system: SF-268 CNS
SNB-75 CNS = test system: SNB-75 CNS
NCI-H23 lung = test system: NCI-H23 lung
UACC-257 melanoma = test system: UACC-257 melanoma
KM12 colon = test system: KM12 colon
NCI-H522 lung = test system: NCI-H522 lung
RXF 393 renal = test system: RXF 393 renal
EKVX NSCLC = test system: EKVX NSCLC
A549 NSCLC = test system: A549 NSCLC
T-47D breast = test system: T-47D breast
TK-10 renal = test system: TK-10 renal
MDA-MB-435 = test system: MDA-MB-435
HCT-116 colon = test system: HCT-116 colon
DU-145 prostate = test system: DU-145 prostate
SF-295 CNS = test system: SF-295 CNS
IGROV1 ovarian = test system: IGROV1 ovarian
HT29 colon = test system: HT29 colon
SK-MEL-5 melanoma = test system: SK-MEL-5 melanoma
SF-539 CNS = test system: SF-539 CNS
OVCAR-5 ovarian = test system: OVCAR-5 ovarian

## CCCC(=O)Nc1cc(C(=O)N2C[C@@H]3C[C@]34C2=CC(=O)c2[nH]cc(C)c24)n(COC)c1
NCI-H460 lung
  GI50: 2.62 µM
  TGI: 16.6 µM and 7.35 µM
K-562 leukemia
  GI50: 2.04 µM
  TGI: 50 µM and > 100 µM
SNB-19 CNS
  GI50: 3.36 µM
  TGI: 50 µM and 14.5 µM
SW-620 colon
  GI50: 2.7 µM
  TGI: 50 µM and 19.9 µM
SK-MEL-28 melanoma
  GI50: 3.08 µM
  TGI: 34.2 µM and 10.7 µM
A498 renal
  TGI: 19.2 µM and 25.1 µM
HS 578T breast
  GI50: 4.31 µM
  TGI: 38.2 µM and 27.1 µM
MOLT-4 leukemia
  GI50: 0.523 µM
  TGI: 3.3 µM and 23.2 µM
SK-MEL-2 melanoma
  GI50: 1.98 µM
  TGI: 12.2 µM and 3.46 µM
CCRF-CEM leukemia
  GI50: 0.495 µM
LOX IMVI melanoma
  GI50: 2.06 µM
  TGI: 30 µM and 7.17 µM
NCI/ADR-RES ovarian
  GI50: 19.7 µM
  TGI: 50 µM and 47.7 µM
BT-549 breast
  GI50: 3 µM
  TGI: 29.5 µM and 11.3 µM
HCC-2998 colon
  GI50: 2.88 µM
  TGI: 9.71 µM and 10.2 µM
SK-OV-3 ovarian
  GI50: 4.32 µM
  TGI: 43.8 µM and 17.9 µM
HOP-92 NSCLC
  GI50: 3.22 µM
  TGI: 11.2 µM and 7.85 µM
U251 CNS
  GI50: 2.39 µM
  TGI: 20.6 µM and 6.21 µM
ACHN renal
  GI50: 3.62 µM
  TGI: 24.6 µM and 26.1 µM
MDA-N
  GI50: 3.66 µM
  TGI: 19.6 µM and 13.3 µM
MALME-3M melanoma
  TGI: 10.9 µM
SR leukemia
  TGI: 2.09 µM
OVCAR-8 ovarian
  TGI: 9.06 µM and 5.87 µM
RPMI-8226 leukemia
  GI50: 2.57 µM
  TGI: 37.3 µM and 8.36 µM
NCI-H226 lung
  TGI: 42.1 µM
UACC-62 melanoma
  GI50: 2.84 µM
  TGI: 13.5 µM and 8.75 µM
SN12C renal
  GI50: 4.45 µM
  TGI: 31.7 µM and 16.1 µM
MDA-MB-231 breast
  GI50: 2.94 µM
  TGI: 29.5 µM and 8.01 µM
PC-3 prostate
  GI50: 2.86 µM
  TGI: 37.5 µM and 13.2 µM
M14 melanoma
  GI50: 2.05 µM
  TGI: 50 µM and 5.96 µM
786-0 renal
  GI50: 1.81 µM
  TGI: 15.2 µM and 3.72 µM
MCF7 breast
  TGI: 50 µM and 11.9 µM
OVCAR-3 ovarian
  GI50: 2.58 µM
  TGI: 24.4 µM and 5.09 µM
CAKI-1 renal
  GI50: 4.25 µM
  TGI: 13 µM and 17.3 µM
OVCAR-4 ovarian
  TGI: 20.3 µM and 19.9 µM
UO-31 renal
  GI50: 26.7 µM
  TGI: 17.3 µM and 94.4 µM
COLO 205 colon
  GI50: 1.83 µM
  TGI: 12.9 µM and 4.26 µM
HOP-62 NSCLC
  GI50: 2.5 µM
  TGI: 50 µM and 8.13 µM
HCT-15 colon
  GI50: 13.9 µM
  TGI: 50 µM and 33.3 µM
HL-60(TB) leukemia
  TGI: 7.8 µM
SF-268 CNS
  GI50: 3.46 µM
  TGI: 10.6 µM and 33.3 µM
SNB-75 CNS
  GI50: 2.99 µM
  TGI: 17.7 µM and 12.3 µM
NCI-H23 lung
  GI50: 1.38 µM
  TGI: 9.19 µM and 3.6 µM
UACC-257 melanoma
  GI50: 3.03 µM
  TGI: 32.4 µM and 6.62 µM
KM12 colon
  GI50: 4.58 µM
  TGI: 20.4 µM and 21.5 µM
NCI-H522 lung
  TGI: 3.57 µM and 2.43 µM
RXF 393 renal
  TGI: 9.21 µM and 3.33 µM
EKVX NSCLC
  GI50: 5.62 µM
  TGI: 30 µM and 25.2 µM
A549 NSCLC
  GI50: 16.6 µM
  TGI: 40.7 µM and 47.9 µM
T-47D breast
  GI50: 2.38 µM
  TGI: 30.2 µM and 10.6 µM
TK-10 renal
  GI50: 3.3 µM
  TGI: 23 µM and 7.37 µM
MDA-MB-435
  GI50: 3.19 µM
  TGI: 19.2 µM and 12.5 µM
HCT-116 colon
  GI50: 2.69 µM
  TGI: 50 µM and 11.8 µM
DU-145 prostate
  GI50: 3.18 µM
  TGI: 27.3 µM and 20.9 µM
SF-295 CNS
  GI50: 5.4 µM
  TGI: 50 µM and 20.4 µM
IGROV1 ovarian
  GI50: 1.35 µM
HT29 colon
  TGI: 24.6 µM and 29 µM
SK-MEL-5 melanoma
  TGI: 5.38 µM and 3.24 µM
SF-539 CNS
  GI50: 2.15 µM
  TGI: 31.1 µM and 5.28 µM
OVCAR-5 ovarian
  GI50: 3.86 µM
  TGI: 50 µM and 10.6 µM

## O=CC(O)C(O)C(O)C(O)C(=O)NCCCCCCCCCCCCNC(=O)C(O)C(O)C(O)C(O)C=O (stereo not drawn)
NCI-H460 lung
  TGI: > 100 µM
SNB-19 CNS
  TGI: > 100 µM
SW-620 colon
  TGI: > 100 µM
SK-MEL-28 melanoma
  TGI: > 100 µM
A498 renal
  TGI: > 100 µM
HS 578T breast
  TGI: > 100 µM
MOLT-4 leukemia
  TGI: > 100 µM
SK-MEL-2 melanoma
  TGI: > 100 µM
CCRF-CEM leukemia
  TGI: > 100 µM
LOX IMVI melanoma
  TGI: > 100 µM
NCI/ADR-RES ovarian
  TGI: > 100 µM
BT-549 breast
  TGI: > 100 µM
HCC-2998 colon
  TGI: > 100 µM
SK-OV-3 ovarian
  TGI: > 100 µM
HOP-92 NSCLC
  TGI: > 100 µM
U251 CNS
  TGI: > 100 µM
ACHN renal
  TGI: > 100 µM
MDA-N
  TGI: > 100 µM
MALME-3M melanoma
  TGI: > 100 µM
SR leukemia
  TGI: > 100 µM
OVCAR-8 ovarian
  TGI: > 100 µM
NCI-H226 lung
  TGI: > 100 µM
UACC-62 melanoma
  TGI: > 100 µM
MDA-MB-231 breast
  TGI: > 100 µM
PC-3 prostate
  TGI: > 100 µM
M14 melanoma
  TGI: > 100 µM
786-0 renal
  TGI: > 100 µM
MCF7 breast
  TGI: > 100 µM
OVCAR-3 ovarian
  TGI: > 100 µM
OVCAR-4 ovarian
  TGI: > 100 µM
UO-31 renal
  TGI: > 100 µM
COLO 205 colon
  TGI: > 100 µM
HOP-62 NSCLC
  TGI: > 100 µM
HCT-15 colon
  TGI: > 100 µM
HL-60(TB) leukemia
  TGI: > 100 µM
SF-268 CNS
  TGI: > 100 µM
NCI-H23 lung
  TGI: > 100 µM
UACC-257 melanoma
  TGI: > 100 µM
KM12 colon
  TGI: > 100 µM
NCI-H522 lung
  TGI: > 100 µM
RXF 393 renal
  TGI: > 100 µM
EKVX NSCLC
  TGI: > 100 µM
A549 NSCLC
  TGI: > 100 µM
T-47D breast
  TGI: > 100 µM
TK-10 renal
  TGI: > 100 µM
MDA-MB-435
  TGI: > 100 µM
HCT-116 colon
  TGI: > 100 µM
DU-145 prostate
  TGI: > 100 µM
SF-295 CNS
  TGI: > 100 µM
IGROV1 ovarian
  TGI: > 100 µM
HT29 colon
  TGI: > 100 µM
SK-MEL-5 melanoma
  TGI: > 100 µM
SF-539 CNS
  TGI: > 100 µM
OVCAR-5 ovarian
  TGI: > 100 µM
